Values joined by “and” are separate entries in the source; they are usually repeats but may differ in a detail not shown here. Equal entries are not always repeated.
What was measured:
Rat AMPA receptors = assay: AMPA-evoked currents, Xenopus laevis oocytes injected with rat cortex poly(A+) mRNA (two-electrode voltage clamp); type: cell-based; conditions: geometric mean
Description: (§1) Compounds were tested by bath application.

[1] = biological target: T1, human AMPA receptor GluA1i (GluA1 flip) (Homo sapiens, UniProt P42261); assay: Glutamate-evoked currents, oocytes expressing recombinant human AMPA receptors; type: cell-based
T1 construct: host or cells: Xenopus laevis oocytes
Description: as §1

[2] = biological target: T2, human AMPA receptor GluA1i/2i (Homo sapiens, UniProt P42261+P42262, Q607R); assay: as above; type: cell-based
T2 construct: host or cells: Xenopus laevis oocytes
Description: as §1

[3] = biological target: T3, human AMPA receptor GluA1i/2o (Homo sapiens, UniProt P42261+P42262, Q607R); assay: as above; type: cell-based
T3 construct: host or cells: Xenopus laevis oocytes
Description: as §1

[4] = biological target: T4, human AMPA receptor GluA1o (GluA1 flop) (Homo sapiens, UniProt P42261); assay: as above; type: cell-based
T4 construct: host or cells: Xenopus laevis oocytes
Description: as §1

[5] = system: human AMPA receptor GluA1o (GluA1 flop); assay: as above; type: cell-based; conditions: S 47445 100 μM
Description: as §1

[6] = biological target: T5, human AMPA receptor GluA1o/2i (Homo sapiens, UniProt P42261+P42262, Q607R); assay: as above; type: cell-based
T5 construct: host or cells: Xenopus laevis oocytes
Description: as §1

[7] = biological target: T6, human AMPA receptor GluA1o/2o (Homo sapiens, UniProt P42261+P42262, Q607R); assay: as above; type: cell-based
T6 construct: host or cells: Xenopus laevis oocytes
Description: as §1

[8] = biological target: T7, human AMPA receptor GluA4i (GluA4 flip) (Homo sapiens, UniProt P48058); assay: as above; type: cell-based
T7 construct: host or cells: Xenopus laevis oocytes
Description: as §1

[9] = biological target: T8, human AMPA receptor GluA4i/2i (Homo sapiens, UniProt P42262+P48058, Q607R); assay: as above; type: cell-based
T8 construct: host or cells: Xenopus laevis oocytes
Description: as §1

[10] = biological target: T9, human AMPA receptor GluA4i/2o (Homo sapiens, UniProt P42262+P48058, Q607R); assay: as above; type: cell-based
T9 construct: host or cells: Xenopus laevis oocytes
Description: as §1

[11] = biological target: T10, human AMPA receptor GluA4o (GluA4 flop) (Homo sapiens, UniProt P48058, A778Q/D799G/G801D/K798G/P767A/P797S/S776N/S800G/T766N/V780L); assay: as above; type: cell-based
T10 construct: host or cells: Xenopus laevis oocytes
Description: as §1

[12] = biological target: T11, human AMPA receptor GluA4o/2i (Homo sapiens, UniProt P42262+P48058, Q607R); assay: as above; type: cell-based
T11 construct: host or cells: Xenopus laevis oocytes
Description: as §1

[13] = biological target: T12, human AMPA receptor GluA4o/2o (Homo sapiens, UniProt P42262+P48058, A778Q/D799G/G801D/K798G/P767A/P797S/Q607R/S776N/S800G/T766N/V780L); assay: as above; type: cell-based
T12 construct: host or cells: Xenopus laevis oocytes
Description: as §1

[14] = system: CA3-CA1 hippocampal synapses; design: method as in PMID 28603025; conditions: cited from earlier work
Y (non-selective) = assay: Binding assay, [3H]NPY
α1 (non-selective) = assay: Binding assay, [3H]prazosin
I2 = assay: Binding assay, [3H]idazoxan
Estrogen a (h) (ERa) = Estrogen a (h) (ERa) (Homo sapiens, UniProt P03372); assay: Binding assay, fluormone ES2
K^+ATP channel = assay: Binding assay, [3H]glibenclamide
Phospholipase C = assay: Enzyme and cell-based assay, [3H]PIP2 (0.3 mM)
AMPA = assay: Binding assay, [3H]AMPA, rat cerebral cortex membranes
Phospholipase A2 = assay: Enzyme and cell-based assay, [3H]phosphatidylethanolamine
NMDA = assay: Binding assay, [3H]CGP 39653, rat cerebral cortex membranes
[15] = system: Adenylyl cyclase (stimulated); assay: Enzyme and cell-based assay, ATP (0.5 mM) / forskolin (10 μM)
[16] = read-out: Ki, glutamate binding site, n = 2

Chain of Estrogen a (h) (ERa) (P03372 whole entry): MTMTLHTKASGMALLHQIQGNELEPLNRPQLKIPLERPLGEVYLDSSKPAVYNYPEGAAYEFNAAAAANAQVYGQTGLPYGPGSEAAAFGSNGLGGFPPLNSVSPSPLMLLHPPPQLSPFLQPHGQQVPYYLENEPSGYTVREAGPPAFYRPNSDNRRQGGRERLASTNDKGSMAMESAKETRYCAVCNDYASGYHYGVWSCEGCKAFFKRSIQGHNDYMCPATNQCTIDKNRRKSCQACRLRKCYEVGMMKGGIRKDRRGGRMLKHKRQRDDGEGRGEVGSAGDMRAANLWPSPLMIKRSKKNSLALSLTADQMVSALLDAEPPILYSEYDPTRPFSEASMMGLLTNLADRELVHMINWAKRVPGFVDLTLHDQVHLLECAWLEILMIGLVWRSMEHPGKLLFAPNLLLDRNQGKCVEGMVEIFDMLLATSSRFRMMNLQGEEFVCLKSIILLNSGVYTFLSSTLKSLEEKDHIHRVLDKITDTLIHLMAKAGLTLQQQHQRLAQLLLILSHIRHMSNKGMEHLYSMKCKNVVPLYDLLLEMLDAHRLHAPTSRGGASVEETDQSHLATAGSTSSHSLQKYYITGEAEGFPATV
T6 sequence (P42261 19-906): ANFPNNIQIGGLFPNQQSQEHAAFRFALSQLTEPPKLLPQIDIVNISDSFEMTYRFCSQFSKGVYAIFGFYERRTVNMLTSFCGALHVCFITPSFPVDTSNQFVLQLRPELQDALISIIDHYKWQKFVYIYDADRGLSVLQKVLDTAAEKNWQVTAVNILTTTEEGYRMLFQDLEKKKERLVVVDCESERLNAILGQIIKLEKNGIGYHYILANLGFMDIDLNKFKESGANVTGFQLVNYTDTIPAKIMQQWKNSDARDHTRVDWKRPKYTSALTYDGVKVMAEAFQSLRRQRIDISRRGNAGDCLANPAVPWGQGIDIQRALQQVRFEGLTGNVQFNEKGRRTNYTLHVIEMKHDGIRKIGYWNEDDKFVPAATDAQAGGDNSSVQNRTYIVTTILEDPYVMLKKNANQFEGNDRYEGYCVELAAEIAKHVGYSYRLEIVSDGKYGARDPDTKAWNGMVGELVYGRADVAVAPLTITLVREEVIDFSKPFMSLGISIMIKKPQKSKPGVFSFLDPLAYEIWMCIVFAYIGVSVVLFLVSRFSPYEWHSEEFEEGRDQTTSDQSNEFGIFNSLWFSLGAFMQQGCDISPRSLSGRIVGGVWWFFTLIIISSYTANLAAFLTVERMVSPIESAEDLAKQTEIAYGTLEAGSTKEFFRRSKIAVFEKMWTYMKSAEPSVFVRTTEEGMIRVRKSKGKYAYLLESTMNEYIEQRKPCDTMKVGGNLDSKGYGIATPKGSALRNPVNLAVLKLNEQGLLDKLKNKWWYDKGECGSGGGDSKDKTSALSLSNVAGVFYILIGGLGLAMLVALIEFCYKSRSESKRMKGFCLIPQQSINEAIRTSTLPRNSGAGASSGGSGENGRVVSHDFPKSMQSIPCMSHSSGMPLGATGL
T6 sequence (P42262 22-883 Q607R limits assumed): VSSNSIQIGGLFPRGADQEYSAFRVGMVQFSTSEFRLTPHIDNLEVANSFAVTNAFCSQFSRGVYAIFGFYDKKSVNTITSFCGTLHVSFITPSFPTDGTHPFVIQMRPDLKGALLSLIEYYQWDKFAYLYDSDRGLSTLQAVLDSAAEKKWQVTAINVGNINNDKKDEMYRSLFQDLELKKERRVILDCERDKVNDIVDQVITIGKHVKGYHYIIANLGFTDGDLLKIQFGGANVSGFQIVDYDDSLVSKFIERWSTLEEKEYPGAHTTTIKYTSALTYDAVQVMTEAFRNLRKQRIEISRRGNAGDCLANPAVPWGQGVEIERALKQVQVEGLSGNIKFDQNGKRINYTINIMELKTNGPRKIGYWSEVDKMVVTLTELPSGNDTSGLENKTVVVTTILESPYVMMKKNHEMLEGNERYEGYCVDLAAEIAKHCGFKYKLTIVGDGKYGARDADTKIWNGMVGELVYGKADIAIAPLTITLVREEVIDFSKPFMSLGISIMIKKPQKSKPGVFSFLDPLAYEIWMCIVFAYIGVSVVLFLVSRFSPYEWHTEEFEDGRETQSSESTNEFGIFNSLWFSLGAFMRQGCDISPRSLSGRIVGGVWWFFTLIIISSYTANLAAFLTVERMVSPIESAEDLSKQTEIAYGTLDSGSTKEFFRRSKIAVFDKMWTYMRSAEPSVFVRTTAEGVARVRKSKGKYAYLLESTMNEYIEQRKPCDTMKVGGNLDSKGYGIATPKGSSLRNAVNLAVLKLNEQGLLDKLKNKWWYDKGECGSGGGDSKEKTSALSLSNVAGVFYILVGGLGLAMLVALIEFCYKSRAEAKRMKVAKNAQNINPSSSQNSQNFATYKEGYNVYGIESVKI
T5 sequence (P42261 19-906): as the sequence (P42261 19-906) above
T5 sequence (P42262 22-883 isoform P42262-2 Q607R limits assumed): as the sequence (P42262 22-883 Q607R limits assumed) above, with N744T, A745P, N754S, L758V, S775A, G776K, G777D, G778S, D779G counted along it
T4 sequence (P42261 19-906): as the sequence (P42261 19-906) above

For O=C1c2cc3nnn(CCc4cccc(F)c4)c(=O)c3cc2OCN1C1CC1 [S 47445, 8-cyclopropyl-3-[2-(3-fluorophenyl)ethyl]-7,8-dihydro-3H-[1,3]oxazino[6,5-g][1,2,3]benzotriazine-4,9-dione], which EC2X (Rat AMPA receptors; concentration giving a two-fold increase in current amplitude) is on record?
Its EC2X is 1.53 µM.

What about the EC50 (Rat AMPA receptors; potentiation of 10 μM AMPA-evoked current) of the same molecule?
Its EC50 is 6.5 µM and 6.54 µM.

What about the EC50 [1] of the same molecule?
The EC50 was 5.4 µM.

And the EC50 [2]?
Its EC50 is 2.6 µM.

What about the EC50 [3] of the same molecule?
The EC50 was 4.3 µM.

What about the EC50 [4] of the same molecule?
The EC50 was 2.5 µM.

What about the “Amplitude of potentiation, flop variants compared to flip variants at GluA1” value [5] of the same molecule?
The value was “about 9 fold”.

And the EC50 [6]?
Its EC50 is 5.4 µM.

What about the EC50 [7] of the same molecule?
Its EC50 is 3.9 µM.

What about the EC50 [8] of the same molecule?
The EC50 was 3 µM.

What about the EC50 [9] of the same molecule?
Its EC50 is 5.4 µM.

And the EC50 [10]?
The EC50 was 3.3 µM.

And the EC50 [11]?
Its EC50 is 0.7 µM.

What about the EC50 [12] of the same molecule?
The EC50 was 3.8 µM.

What about the EC50 [13] of the same molecule?
Its EC50 is 2.9 µM.

What about the “Age-related deficit of LTP” value ([14]; 10 mg/kg chronic, old alert mice) of the same molecule?
Its value is “significantly counteracted the deficit of LTP”.

What about the “Long term potentiation (LTP) versus vehicle” value ([14]; 10 mg/kg p.o. acute, young alert mice) of the same molecule?
The value was “significantly increased long term potentiation”.

And the “% Inhibition of control specific binding” value (Y (non-selective); S 47445 1.0E-05 M)?
Its value is -6%.

What about the “% Inhibition of control specific binding” value (Y (non-selective); S 47445 1.0E-07 M) of the same molecule?
Its value is -4%.

And the “% Inhibition of control specific binding” value (α1 (non-selective); S 47445 1.0E-05 M)?
The value was 1%.

And the “% Inhibition of control specific binding” value (α1 (non-selective); S 47445 1.0E-07 M)?
The value was -5%.

What about the “% Inhibition of control specific binding” value (I2; S 47445 1.0E-05 M) of the same molecule?
The value was 29%.

And the “% Inhibition of control specific binding” value (I2; S 47445 1.0E-07 M)?
The value was -5%.

What about the “% Inhibition of control specific binding” value (Estrogen a (h) (ERa); S 47445 1.0E-05 M) of the same molecule?
The value was 5%.

And the “% Inhibition of control specific binding” value (Estrogen a (h) (ERa); S 47445 1.0E-07 M)?
The value was 4%.

And the “% Inhibition of control specific binding” value (K^+ATP channel; S 47445 1.0E-05 M)?
The value was 0%.

What about the “% Inhibition of control specific binding” value (K^+ATP channel; S 47445 1.0E-07 M) of the same molecule?
The value was 6%.

And the “% Inhibition of control specific binding” value (Phospholipase C; S 47445 1.0E-05 M)?
Its value is 7%.

And the “% Inhibition of control specific binding” value (Phospholipase C; S 47445 1.0E-07 M)?
The value was -5%.

And the “% Inhibition of control specific binding” value (AMPA; S 47445 1.0E-05 M)?
The value was -8%.

What about the “% Inhibition of control specific binding” value (AMPA; S 47445 1.0E-07 M) of the same molecule?
The value was 1%.

What about the Ki (AMPA; [16]) of the same molecule?
Its Ki is greater than 10 µM.

And the “% Inhibition of control specific binding” value (Phospholipase A2; S 47445 1.0E-05 M)?
Its value is -4%.

What about the “% Inhibition of control specific binding” value (Phospholipase A2; S 47445 1.0E-07 M) of the same molecule?
Its value is 0%.

What about the “% Inhibition of control specific binding” value (NMDA; S 47445 1.0E-05 M) of the same molecule?
The value was -1%.

And the “% Inhibition of control specific binding” value (NMDA; S 47445 1.0E-07 M)?
The value was 2%.

What about the Ki (NMDA; [16]) of the same molecule?
Its Ki is greater than 10 µM.

What about the “% Inhibition of control specific binding” value ([15]; S 47445 1.0E-05 M) of the same molecule?
The value was -21%.

And the “% Inhibition of control specific binding” value ([15]; S 47445 1.0E-07 M)?
The value was 6%.

Reference: publication PMC5590943, “Pharmacological characterisation of S 47445, a novel positive allosteric modulator of AMPA receptors” (PLoS ONE, 2017)
